Experimental findings from ChEMBL document CHEMBL1201862, “PubChem BioAssay data set” (2004) are described below.

Data set [1] concerns the target DNA damage-inducible transcript 3 protein (Mus musculus, UniProt P35639). Type of data set: functional, Cricetulus griseus.
The next data set deals with X-box-binding protein 1 (Homo sapiens, UniProt P17861). The data set is classed as functional, Cricetulus griseus.
Data set [2] concerns the target Heat shock protein HSP 90-alpha (Homo sapiens, UniProt P07900). Type of data set: functional, organism-based.
For the next data set, the system named is HeLa. Nature of the data set: Cytotoxicity counterscreen assay for transcriptional activators of heat shock protein 70 (Hsp70). [Related pubchem assays: 1203, 1252 ]. The conditions noted are these: Homo sapiens. The data set is classed as functional.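 Further: cells exposed to compound for 16 hours before readout.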
For another data set, the system named is BJ. The experiment in a line: cytotoxicity toward Ras-transformed BJeLR fibroblasts, dose response, cell-based, alamar blue fluorescence, cherrypicked samples (AID 2631).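 Further: confirmatory dose-response assay in RAS-dependent BJ fibroblasts engineered with TERT, LT and ST, with cytotoxicity read by fluorescence.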 The data set is classed as functional. To be noted: Homo sapiens. Background: The colour change of resazurin is a common sign of viable cells or microbes.
The target of data set [3] is T1, Beta-adrenergic receptor kinase 1 (Homo sapiens, UniProt P25098). The experiment in a line: GRK2 inhibitors displacing RNA aptamer, dose response, biochemical, flow cytometry beads, FAM-aptamer, powder set 1 (AID 588720). Background: Flow cytometry measures light scatter and fluorescence of single cells or particles in a stream.
T1 sequence (P25098 whole entry): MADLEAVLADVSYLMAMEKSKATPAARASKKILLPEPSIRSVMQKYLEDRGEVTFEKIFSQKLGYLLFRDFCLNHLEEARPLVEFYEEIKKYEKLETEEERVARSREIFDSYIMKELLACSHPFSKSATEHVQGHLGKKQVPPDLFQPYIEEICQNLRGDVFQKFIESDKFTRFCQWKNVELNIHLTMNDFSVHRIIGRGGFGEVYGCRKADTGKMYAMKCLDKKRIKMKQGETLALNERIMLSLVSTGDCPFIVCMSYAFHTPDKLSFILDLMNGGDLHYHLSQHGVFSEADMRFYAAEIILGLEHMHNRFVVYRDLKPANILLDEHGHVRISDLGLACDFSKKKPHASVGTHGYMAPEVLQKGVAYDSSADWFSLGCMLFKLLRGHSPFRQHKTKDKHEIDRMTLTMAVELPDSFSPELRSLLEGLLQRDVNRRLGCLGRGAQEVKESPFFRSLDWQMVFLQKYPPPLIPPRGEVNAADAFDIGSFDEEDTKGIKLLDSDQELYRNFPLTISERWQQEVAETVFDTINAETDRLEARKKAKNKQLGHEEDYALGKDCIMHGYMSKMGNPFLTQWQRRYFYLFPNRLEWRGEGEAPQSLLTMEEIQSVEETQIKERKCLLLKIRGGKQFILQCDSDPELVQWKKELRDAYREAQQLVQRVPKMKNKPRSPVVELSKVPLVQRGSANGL
Data set [4] has as its target Peroxisome proliferator-activated receptor gamma/Nuclear receptor corepressor 2 (Homo sapiens, UniProt P37231+Q9Y618). Nature of the data set: Counterscreen for NR2E3 inverse agonists: TR-FRET-based biochemical high throughput dose response assay to identify inverse agonists of the interaction between peroxisome proliferator-activated receptor gamma (PPARg) and nuclear receptor co-repressor 2 (NCOR2). The data set is classed as functional. (Counterscreens check selectivity or assay interference.)

Data set [5] deals with Photoreceptor-specific nuclear receptor (Homo sapiens, UniProt Q9Y5X4). Nature of the data set: NR2E3 inverse agonists, dose response, biochemical, TR-FRET (AID 463256). Type of data set: functional.
Chain of Photoreceptor-specific nuclear receptor (Q9Y5X4 whole entry, the tested form may be a part): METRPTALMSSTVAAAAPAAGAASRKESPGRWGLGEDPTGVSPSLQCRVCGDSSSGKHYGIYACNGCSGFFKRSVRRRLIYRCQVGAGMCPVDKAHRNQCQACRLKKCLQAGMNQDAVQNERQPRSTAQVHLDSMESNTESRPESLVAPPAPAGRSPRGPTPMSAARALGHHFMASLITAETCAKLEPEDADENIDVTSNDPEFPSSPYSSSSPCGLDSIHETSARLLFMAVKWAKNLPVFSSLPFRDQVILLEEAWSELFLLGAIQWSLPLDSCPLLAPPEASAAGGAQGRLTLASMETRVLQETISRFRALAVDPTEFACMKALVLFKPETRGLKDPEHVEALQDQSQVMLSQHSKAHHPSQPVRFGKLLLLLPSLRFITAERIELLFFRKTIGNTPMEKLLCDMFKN
Data set [6] concerns the target T2, Carboxy-terminal domain RNA polymerase II polypeptide A small phosphatase 1 (Homo sapiens, UniProt Q9GZU7).
T2 sequence (Q9GZU7 whole entry): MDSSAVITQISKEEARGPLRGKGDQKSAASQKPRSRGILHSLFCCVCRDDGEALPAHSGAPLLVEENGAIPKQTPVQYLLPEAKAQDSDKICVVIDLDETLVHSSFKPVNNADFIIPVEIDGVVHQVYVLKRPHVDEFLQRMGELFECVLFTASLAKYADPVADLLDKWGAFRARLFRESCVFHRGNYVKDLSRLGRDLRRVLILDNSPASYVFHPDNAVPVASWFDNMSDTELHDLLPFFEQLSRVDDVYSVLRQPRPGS
Nature of the data set: inhibitors of CTDSP1, concentration-response testing, biochemical assay, absorbance-based, actives from ultra-high-throughput screening (AID 540297). The data set is classed as functional.

In data set [7] the target is T3, Heat shock factor protein 1 (Mus musculus, UniProt P38532).
T3 sequence (P38532 whole entry): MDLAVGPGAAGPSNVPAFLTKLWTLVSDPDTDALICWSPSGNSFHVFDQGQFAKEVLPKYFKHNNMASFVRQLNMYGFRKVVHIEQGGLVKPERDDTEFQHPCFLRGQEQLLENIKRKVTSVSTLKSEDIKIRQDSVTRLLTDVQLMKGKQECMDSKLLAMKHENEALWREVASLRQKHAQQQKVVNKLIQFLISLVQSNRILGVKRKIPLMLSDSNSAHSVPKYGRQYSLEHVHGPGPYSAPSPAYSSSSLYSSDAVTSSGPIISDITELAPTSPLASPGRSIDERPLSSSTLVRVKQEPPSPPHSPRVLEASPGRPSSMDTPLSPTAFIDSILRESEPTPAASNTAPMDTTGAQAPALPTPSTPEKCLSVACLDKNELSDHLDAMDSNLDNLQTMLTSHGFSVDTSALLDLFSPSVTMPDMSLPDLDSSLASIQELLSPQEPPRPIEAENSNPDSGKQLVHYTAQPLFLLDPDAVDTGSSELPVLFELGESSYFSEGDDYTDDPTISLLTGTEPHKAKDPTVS
Nature of the data set: inhibition of MG132-induced HSE-luciferase signal, confirmation, cell-based, NIH3T3, luminescence, dose retest (AID 2382).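 Further: NIH3T3 fibroblasts with HSF1-driven luciferase reporter stressed by proteasome inhibitor MG132; luminescence from HSF1-driven luciferase expression after 8 hours of MG132 stress.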 The data set is classed as functional.

Data set [8] has as its target T1, Beta-adrenergic receptor kinase 1. Nature of the data set: aptamer displacement from bead-bound GRK2 – biochemical, cherry pick 1, bead flow cytometry, dose response (AID 504500).
Data set [9] deals with Sphingosine 1-phosphate receptor 1 (Homo sapiens, UniProt P21453). The experiment in a line: Late stage counterscreen assay for S1P4 antagonists: Fluorescence dose response cell-based screening assay for antagonists of the Sphingosine 1-Phosphate Receptor 1 (S1P1). [Related pubchem assays (depositor defined):AID1510, AID1524, AID1692, AID1853, AID2332, AID489009, AID489017]. The data set is classed as functional.

Data set [10] has as its target Sphingosine 1-phosphate receptor 3 (Homo sapiens, UniProt Q99500). Nature of the data set: Late stage counterscreen assay for S1P4 antagonists: Fluorescence dose response cell-based screening assay for antagonists of the Sphingosine 1-Phosphate Receptor 3 (S1P3). [Related pubchem assays (depositor defined):AID1510, AID1524, AID1692, AID1853, AID2332, AID489009, AID489017]. The data set is classed as functional.

The target in data set [11] is Sphingosine 1-phosphate receptor 5 (Homo sapiens, UniProt Q9H228). Nature of the data set: Late stage counterscreen assay for S1P4 antagonists: Fluorescence dose response cell-based screening assay for antagonists of the Sphingosine 1-Phosphate Receptor 5 (S1P5). [Related pubchem assays (depositor defined):AID1510, AID1524, AID1692, AID1853, AID2332, AID489009, AID489017]. Type of data set: functional.
Chain of Sphingosine 1-phosphate receptor 5 (Q9H228 whole entry): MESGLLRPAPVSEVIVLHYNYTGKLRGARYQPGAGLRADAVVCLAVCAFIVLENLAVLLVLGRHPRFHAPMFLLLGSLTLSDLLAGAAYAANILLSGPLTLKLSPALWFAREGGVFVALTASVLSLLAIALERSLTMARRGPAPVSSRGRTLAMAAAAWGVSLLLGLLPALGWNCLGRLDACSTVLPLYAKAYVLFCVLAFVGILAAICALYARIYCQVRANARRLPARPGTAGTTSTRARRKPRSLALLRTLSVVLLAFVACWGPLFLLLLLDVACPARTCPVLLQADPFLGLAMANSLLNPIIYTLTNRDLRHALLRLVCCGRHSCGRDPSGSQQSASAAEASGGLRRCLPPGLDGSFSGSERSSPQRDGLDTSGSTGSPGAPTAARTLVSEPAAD

The target in data set [12] is Sphingosine 1-phosphate receptor 2 (Homo sapiens, UniProt O95136). The experiment in a line: Late stage counterscreen assay for S1P4 antagonists: Fluorescence dose response cell-based screening assay for antagonists of the Sphingosine 1-Phosphate Receptor 2 (S1P2). [Related pubchem assays (depositor defined):AID1510, AID1524, AID1692, AID1853, AID2332, AID489009, AID489017]. The data set is classed as functional.
Chain of Sphingosine 1-phosphate receptor 2 (O95136 whole entry): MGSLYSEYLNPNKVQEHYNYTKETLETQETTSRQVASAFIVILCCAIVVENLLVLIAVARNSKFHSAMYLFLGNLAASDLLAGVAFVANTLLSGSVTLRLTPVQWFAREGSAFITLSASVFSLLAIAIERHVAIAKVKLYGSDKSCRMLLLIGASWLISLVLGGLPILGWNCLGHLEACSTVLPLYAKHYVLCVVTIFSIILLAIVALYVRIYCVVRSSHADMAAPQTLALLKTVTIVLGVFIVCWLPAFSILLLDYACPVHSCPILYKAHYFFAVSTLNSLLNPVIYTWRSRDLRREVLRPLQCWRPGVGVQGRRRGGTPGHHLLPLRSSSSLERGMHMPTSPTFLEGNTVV

The target of data set [13] is Hepatocyte nuclear factor 4-alpha (Homo sapiens, UniProt P41235). The data set is classed as functional, cell-based.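 Further: biochemical luminescence-based dose-response counterscreen measuring inhibition of HNF4 dimerization, run alongside a screen for blockers of ABHD5–perilipin-5 interaction; split luciferase complementation of HNF4 fusion proteins in cell lysate measuring dimerization.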
Chain of Hepatocyte nuclear factor 4-alpha (P41235 whole entry, the tested form may be a part): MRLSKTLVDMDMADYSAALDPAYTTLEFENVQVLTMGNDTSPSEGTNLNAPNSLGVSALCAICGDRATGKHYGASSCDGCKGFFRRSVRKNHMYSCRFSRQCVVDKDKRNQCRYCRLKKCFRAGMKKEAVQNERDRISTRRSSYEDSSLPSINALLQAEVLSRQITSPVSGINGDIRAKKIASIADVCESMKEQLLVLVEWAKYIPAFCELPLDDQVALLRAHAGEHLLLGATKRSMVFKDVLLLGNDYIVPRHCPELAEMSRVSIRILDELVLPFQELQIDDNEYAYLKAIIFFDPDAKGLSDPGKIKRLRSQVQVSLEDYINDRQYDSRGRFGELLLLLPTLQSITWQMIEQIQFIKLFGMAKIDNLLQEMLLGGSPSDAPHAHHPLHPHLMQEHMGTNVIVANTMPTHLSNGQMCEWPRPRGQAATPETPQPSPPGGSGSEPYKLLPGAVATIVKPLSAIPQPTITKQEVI
In the next data set the test system is A-375. Nature of the data set: MITF: Counter assay: A375 proliferation Measured in Cell-Based System Using Plate Reader - 2084-03_Inhibitor_Dose_DryPowder_Activity. [Related pubchem assays (depositor defined):AID488944]. Type of data set: functional. The conditions noted are these: Homo sapiens.
Data set [14] in a line: microbe, parasite or virus in culture. Type of data set: functional. The conditions noted are these: Mycobacterium tuberculosis.
The target of another data set is Beta-galactosidase (Escherichia coli, UniProt Q8VNN2). The experiment in a line: PubChem AID 485352. The data set is classed as functional.
Chain of Beta-galactosidase (Q8VNN2 whole entry): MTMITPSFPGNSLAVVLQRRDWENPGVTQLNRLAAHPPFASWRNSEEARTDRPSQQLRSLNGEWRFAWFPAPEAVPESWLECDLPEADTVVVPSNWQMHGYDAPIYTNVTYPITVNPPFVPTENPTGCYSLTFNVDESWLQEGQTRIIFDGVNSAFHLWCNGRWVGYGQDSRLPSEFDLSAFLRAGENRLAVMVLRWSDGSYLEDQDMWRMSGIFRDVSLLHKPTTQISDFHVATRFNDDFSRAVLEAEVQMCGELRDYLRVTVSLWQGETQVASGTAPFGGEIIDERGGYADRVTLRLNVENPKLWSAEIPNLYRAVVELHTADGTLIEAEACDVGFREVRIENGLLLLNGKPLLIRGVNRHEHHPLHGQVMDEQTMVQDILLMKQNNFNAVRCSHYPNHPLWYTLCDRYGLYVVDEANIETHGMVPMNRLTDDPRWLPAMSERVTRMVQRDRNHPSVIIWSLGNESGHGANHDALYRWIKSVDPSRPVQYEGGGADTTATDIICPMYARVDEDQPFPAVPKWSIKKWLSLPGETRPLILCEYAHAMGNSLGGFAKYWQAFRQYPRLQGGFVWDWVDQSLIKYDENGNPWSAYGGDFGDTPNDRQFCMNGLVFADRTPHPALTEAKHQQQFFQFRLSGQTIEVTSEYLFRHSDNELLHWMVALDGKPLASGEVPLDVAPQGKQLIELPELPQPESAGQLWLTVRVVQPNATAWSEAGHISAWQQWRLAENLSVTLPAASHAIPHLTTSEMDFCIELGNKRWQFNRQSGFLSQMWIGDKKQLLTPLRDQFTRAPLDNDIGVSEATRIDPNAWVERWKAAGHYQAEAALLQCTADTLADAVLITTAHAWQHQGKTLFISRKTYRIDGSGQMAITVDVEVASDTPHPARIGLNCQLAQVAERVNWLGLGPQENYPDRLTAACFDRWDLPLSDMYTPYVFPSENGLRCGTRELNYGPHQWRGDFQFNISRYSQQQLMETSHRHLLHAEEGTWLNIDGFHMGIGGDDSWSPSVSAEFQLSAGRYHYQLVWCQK
The target in data set [15] is Type-1 angiotensin II receptor (Homo sapiens, UniProt P30556). The experiment in a line: AT1 receptor antagonists, dose response, selectivity assay for APJ receptor antagonist project, cell-based, uHTS hits (AID 463214).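 Further: antagonist potency against angiotensin II stimulated AT1 response.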 Type of data set: functional.
The subject of another data set is INS1. Nature of the data set: beta cell apoptosis inhibitors, cytokine rescue, dose response, luminescence, retest (AID 449756).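 Further: cell death triggered by IL-1 beta plus TNF-alpha plus IFN-gamma mixture; protective hits raise ATP signal compared with cytokine alone wells.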 Type of data set: functional, cell-based. The conditions noted are these: Rattus norvegicus.
A short description of data set [16]: cytotoxicity in HEK-293T NF-kB-Luc cells, dose response, cytotoxicity control for B/T-cell NF-kB inhibitor project, cell-based, uHTS hits (AID 489019).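 Further: IC50 reflects cytotoxicity as loss of cell viability.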 The data set is classed as functional.
For data set [17], the system named is Jurkat. The experiment in a line: antigen receptor-induced NF-kB inhibitors, dose response, Jurkat, luciferase reporter, luminescence, B- and T-cell (AID 489004).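 Further: NF-kB luciferase reporter Jurkat cells stimulated with PMA plus ionomycin.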 Type of data set: functional, cell-based. To be noted: Homo sapiens.
Data set [18] addresses Potassium voltage-gated channel subfamily KQT member 2 (Rattus norvegicus, UniProt O88943). Nature of the data set: KCNQ2 channel activators, analog series, SAR follow-up, automated patch clamp, KCNQ2-CHO cells (AID 493113). Type of data set: functional.
Data set [19] has as its system HEK293. Nature of the data set: cytotoxicity in HEK293T NF-kB-Luc cells, SAR follow-up, cytotoxicity control for NF-kB activator project, cell-based, resazurin fluorescence (AID 493251). The data set is classed as functional. The conditions noted are these: Homo sapiens.
The test system of data set [20] is Jurkat. Nature of the data set: SAR Analysis of small molecule inhibitors of […] specific antigen receptor-induced NF-kB activation in a Jurkat cell line using a luminescence assay - Set 3. [Related pubchem assays (depositor defined):AID435022, AID435025, AID465]. The data set is classed as functional, cell-based. To be noted: Homo sapiens.
Data set [21] concerns HEK293. The experiment in a line: SAR Analysis of small molecule inhibitors of B-cell specific antigen receptor-induced NF-kB activation in a HEK-293T cell line using a luminescence assay - Set 2. [Related pubchem assays (depositor defined):AID435022, AID435025, AID489021]. Type of data set: functional, cell-based. To be noted: Homo sapiens.
Data set [22] is described as follows: Luminescence Cell-Based Dose Retest to Confirm Inhibitors of Cancer Stem Cells. [Related pubchem assays (depositor defined):AID2717, AID2721]. The conditions noted are these: Homo sapiens. The data set is classed as functional.
Data set [23] in a line: cytotoxicity in HMLE control line with eGFP shRNA, dose response, counter-screen for HMLE_sh_ECad selective toxicity project, cell-based, HMLE_sh_eGFP, luminescence (AID 463074).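 Further: HMLE human mammary epithelial cells expressing control shRNA against eGFP.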 Type of data set: functional, Homo sapiens.
In a further data set the target is Cytochrome P450 2D6 (Homo sapiens, UniProt P10635).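 Further: CYP2D6 member of a cytochrome P450 panel assay.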
The next data set concerns the target T4, Cytochrome P450 1A2 (Homo sapiens, UniProt P05177).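 Further: PubChem cytochrome P450 panel assay, CYP1A2 panel member.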
T4 sequence (P05177 whole entry): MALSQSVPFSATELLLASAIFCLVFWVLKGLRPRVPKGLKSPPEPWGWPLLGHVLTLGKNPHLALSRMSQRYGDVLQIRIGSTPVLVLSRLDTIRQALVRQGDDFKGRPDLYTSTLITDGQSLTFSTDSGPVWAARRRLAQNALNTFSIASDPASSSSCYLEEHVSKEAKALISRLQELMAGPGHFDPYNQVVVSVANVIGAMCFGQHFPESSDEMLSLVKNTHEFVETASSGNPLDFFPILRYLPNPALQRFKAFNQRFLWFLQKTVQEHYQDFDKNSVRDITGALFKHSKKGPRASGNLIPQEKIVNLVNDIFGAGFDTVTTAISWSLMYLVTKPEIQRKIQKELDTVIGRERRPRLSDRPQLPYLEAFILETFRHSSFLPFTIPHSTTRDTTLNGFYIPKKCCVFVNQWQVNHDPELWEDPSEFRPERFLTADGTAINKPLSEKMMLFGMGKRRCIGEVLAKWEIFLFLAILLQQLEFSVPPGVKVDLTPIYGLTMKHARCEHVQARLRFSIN

Data set [24] concerns the target Voltage-gated inwardly rectifying potassium channel KCNH2 (Homo sapiens, UniProt Q12809). The conditions noted are these: Potency.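 Further: confirmatory quantitative high-throughput screen measuring inhibition of hERG channel activity.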

Active and inactive are the calls of the source.
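Wherever Absolute IC50 (XBP1) is given: confirmatory dose-response counter-screen serving a CHOP assay.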

Chain of DNA damage-inducible transcript 3 protein (P35639 whole entry): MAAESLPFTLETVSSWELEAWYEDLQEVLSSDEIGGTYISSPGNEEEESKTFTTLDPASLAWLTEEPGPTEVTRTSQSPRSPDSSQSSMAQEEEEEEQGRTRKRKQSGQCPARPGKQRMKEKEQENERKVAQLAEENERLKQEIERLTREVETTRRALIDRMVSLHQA
Chain of Sphingosine 1-phosphate receptor 3 (Q99500 whole entry): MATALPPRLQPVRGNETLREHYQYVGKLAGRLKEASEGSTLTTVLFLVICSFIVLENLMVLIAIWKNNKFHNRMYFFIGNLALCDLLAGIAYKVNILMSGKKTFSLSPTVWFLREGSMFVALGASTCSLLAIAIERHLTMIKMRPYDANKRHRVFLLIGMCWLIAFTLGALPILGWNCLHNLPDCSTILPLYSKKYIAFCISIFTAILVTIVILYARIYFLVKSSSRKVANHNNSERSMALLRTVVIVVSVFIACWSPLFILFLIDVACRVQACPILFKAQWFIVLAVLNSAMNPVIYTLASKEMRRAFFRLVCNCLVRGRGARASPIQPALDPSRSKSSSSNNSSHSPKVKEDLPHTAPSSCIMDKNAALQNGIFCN
Chain of Potassium voltage-gated channel subfamily KQT member 2 (O88943 whole entry): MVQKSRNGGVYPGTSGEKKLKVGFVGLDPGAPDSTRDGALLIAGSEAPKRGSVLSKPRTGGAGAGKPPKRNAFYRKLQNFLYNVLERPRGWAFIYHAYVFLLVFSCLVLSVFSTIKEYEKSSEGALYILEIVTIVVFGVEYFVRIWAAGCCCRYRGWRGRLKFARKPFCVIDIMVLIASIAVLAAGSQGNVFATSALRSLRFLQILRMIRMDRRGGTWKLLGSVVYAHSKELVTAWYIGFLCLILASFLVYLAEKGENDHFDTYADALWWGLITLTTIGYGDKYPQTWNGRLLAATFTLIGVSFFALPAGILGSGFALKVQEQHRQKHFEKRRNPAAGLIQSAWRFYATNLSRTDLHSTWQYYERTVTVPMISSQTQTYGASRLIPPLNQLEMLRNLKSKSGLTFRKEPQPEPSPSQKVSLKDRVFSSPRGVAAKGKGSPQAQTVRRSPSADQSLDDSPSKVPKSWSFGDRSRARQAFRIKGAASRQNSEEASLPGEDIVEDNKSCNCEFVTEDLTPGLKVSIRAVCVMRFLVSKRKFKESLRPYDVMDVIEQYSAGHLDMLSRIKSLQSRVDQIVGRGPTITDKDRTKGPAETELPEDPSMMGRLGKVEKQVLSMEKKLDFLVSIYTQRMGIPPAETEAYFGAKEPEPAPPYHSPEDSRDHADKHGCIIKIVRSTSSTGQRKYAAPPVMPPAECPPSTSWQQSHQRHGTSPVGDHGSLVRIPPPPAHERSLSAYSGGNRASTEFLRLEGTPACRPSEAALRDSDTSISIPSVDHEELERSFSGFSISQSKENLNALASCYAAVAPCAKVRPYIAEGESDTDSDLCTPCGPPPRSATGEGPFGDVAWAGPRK

On to `O=C1/C(=C/c2ccncc2)CCC/C1=C\c1ccncc1`, for which the “Absolute IC50 (CHOP)” value in [1] worked out at 10 µM. Besides, the “Absolute IC50 (XBP1)” value on X-box-binding protein 1 is 10 µM. Besides, the AC50 in data set [2] is 8.7 µM (active). Also, the CC50 in the data set with HeLa was > 1.22 µM (not active). Moreover, the EC50 in the data set with BJ was 474 nM (active).
In the case of `O=C(CCS(=O)(=O)c1ccc(Br)s1)Nc1ccccc1Br`, the EC50 in data set [3] is 20.9 µM (active).
For `CCc1ccccc1NC(=O)CCS(=O)(=O)c1ccc(OC)cc1`, the results for the IC50 in [4], in data set [5] and in data set [6] were 16.8 µM (not active), 13.9 µM (not active) and 21.1 µM (active), respectively. The EC50 was > 195 µM (not active) in data set [7] and 17.8 µM (inactive) in data set [8].
For the compound `Cc1ccc(S(C)(=O)=O)c(C)c1NC(=O)c1ccc(-c2cc(Cl)ccc2Cl)o1`, the IC50 in data set [9] is > 25 µM (inactive); in data set [10] it was 15.8 µM (inactive); in [11], > 25 µM (inactive); in data set [12], 13.8 µM (inactive).
Consider `COc1ccc(C)c2sc(N(CCN(C)C)C(=O)/C=C/c3cccs3)nc12`, for which the IC50 in [13] was 35.2 µM (inactive). In the data set with A-375, the AC50 was 43.2 µM (active). In data set [14], the CC50 is 12.7 µM (active).
In the case of `Cc1ccc(C(=O)COC(=O)CCC(=O)Nc2ccccc2Cl)cc1[N+](=O)[O-]`, the EC50 on Beta-galactosidase is > 40 µM (inactive). Besides, the IC50 in [15] is 22.9 µM (not active).
Consider `COC1=CC(=O)[C@]2(C=C1OC)OC[C@@H]1Oc3c(ccc4c3C=CC(C)(C)O4)C(=O)[C@@H]12`, for which the AC50 in the data set with INS1 was 671 nM (active). The IC50 in data set [16] was 23 µM (inactive); with Jurkat [17], 28.7 µM (inactive).
As for `O=C(Nc1ccc(F)cc1F)C1CC2CCC1C2` (configuration not stated), in data set [18], the EC50 was 10 µM (active).
For `CCOc1ccc(-c2nc(CSCC(=O)NC3CCCC(C)C3C)c(C)o2)cc1` (configuration not stated), the IC50 in the data set with HEK293 [19] was 38.9 µM (inactive); in the data set on Jurkat [20], 39.3 µM (inactive); in the data set with HEK293 [21], 8.81 µM (active).
Turning to `C/C(=N\Nc1cccc(Cl)c1)C1(C)N(O)C(C)(C)C(c2ccco2)=[N+]1[O-]` (configuration not stated), the AC50 in data set [22] is 1.06 µM (active); in data set [23] it was 1.5 µM (inconclusive).
Take `Nc1nnc(-c2cccc(Cl)c2Cl)c(N)n1` [LAMOTRIGINE]: the AC50 is 6.31 µM (active) on Cytochrome P450 2D6 and “inactive” at Cytochrome P450 1A2.
In the case of `CC(=O)CC(C)C` [METHYL ISOBUTYL KETONE], the AC50 in data set [24] was 15.8 µM (inconclusive).

Usually AC50 stands for the midpoint of the concentration-response curve, whichever way the signal moves. By EC50 is commonly meant the concentration at which the effect is half-maximal. As usually defined, the IC50 is the concentration needed to halve the response being measured.
